Measurements from ChEMBL document CHEMBL5579837, “Dual 5-HT6/SERT ligands for mitigating neuropsychiatric symptoms of dementia exerting neuroprotection against amyloid-β toxicity, memory preservation, and antidepressant-like properties” (Eur J Med Chem, 2024).
Values after ≈ are worked out from the molar mass of the structure shown.

Experiments:
[1] = molecular target: Voltage-gated inwardly rectifying potassium channel KCNH2 (Homo sapiens, UniProt Q12809); experiment: Inhibition of hERG expressed in CHO cells measured for 30 mins by electrophysiological automated patch clamp assay; format: toxicity, cell-based
[2] = molecular target: 5-hydroxytryptamine receptor 6 (Homo sapiens, UniProt P50406)
Description: Displacement of [3H]-LSD from human 5-HT6 receptor extracted from CHO-K1 cell membrane assessed as inhibition constant incubated for 60 mins by microbeta2 scintillation counter analysis

in vitro [3] = conditions: PAMPA
Description: Permeability of compound by PAMPA based LC-MS analysis

in vitro [4] = conditions: mouse, HT-22 cells
Description: Neurotoxicity in mouse HT-22 cells incubated for 24 hrs by PrestoBlue reagent based assay

in vitro [5] = conditions: human, HepG2 cells
Description: Hepatotoxicity in human HepG2 cells incubated for 24 hrs by PrestoBlue reagent based assay

in vitro [6] = conditions: rat, liver microsomes
in vitro [7] = conditions: rat, liver microsomes; remark: listed apart in the source
physchem = conditions: PBS, pH 7.4

Chain of 5-hydroxytryptamine receptor 6 (P50406 whole entry): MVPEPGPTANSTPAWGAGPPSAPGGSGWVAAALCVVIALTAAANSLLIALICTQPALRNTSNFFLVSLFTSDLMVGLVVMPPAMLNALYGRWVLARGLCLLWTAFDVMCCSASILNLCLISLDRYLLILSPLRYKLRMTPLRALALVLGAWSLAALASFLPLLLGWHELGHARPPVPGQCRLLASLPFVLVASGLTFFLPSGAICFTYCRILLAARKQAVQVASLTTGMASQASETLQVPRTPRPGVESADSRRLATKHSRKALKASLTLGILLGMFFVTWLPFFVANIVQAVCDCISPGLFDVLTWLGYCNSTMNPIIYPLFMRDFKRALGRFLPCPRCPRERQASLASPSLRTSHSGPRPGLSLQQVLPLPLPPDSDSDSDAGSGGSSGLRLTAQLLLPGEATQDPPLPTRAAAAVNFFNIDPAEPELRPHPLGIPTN
Chain of Voltage-gated inwardly rectifying potassium channel KCNH2 (Q12809 whole entry): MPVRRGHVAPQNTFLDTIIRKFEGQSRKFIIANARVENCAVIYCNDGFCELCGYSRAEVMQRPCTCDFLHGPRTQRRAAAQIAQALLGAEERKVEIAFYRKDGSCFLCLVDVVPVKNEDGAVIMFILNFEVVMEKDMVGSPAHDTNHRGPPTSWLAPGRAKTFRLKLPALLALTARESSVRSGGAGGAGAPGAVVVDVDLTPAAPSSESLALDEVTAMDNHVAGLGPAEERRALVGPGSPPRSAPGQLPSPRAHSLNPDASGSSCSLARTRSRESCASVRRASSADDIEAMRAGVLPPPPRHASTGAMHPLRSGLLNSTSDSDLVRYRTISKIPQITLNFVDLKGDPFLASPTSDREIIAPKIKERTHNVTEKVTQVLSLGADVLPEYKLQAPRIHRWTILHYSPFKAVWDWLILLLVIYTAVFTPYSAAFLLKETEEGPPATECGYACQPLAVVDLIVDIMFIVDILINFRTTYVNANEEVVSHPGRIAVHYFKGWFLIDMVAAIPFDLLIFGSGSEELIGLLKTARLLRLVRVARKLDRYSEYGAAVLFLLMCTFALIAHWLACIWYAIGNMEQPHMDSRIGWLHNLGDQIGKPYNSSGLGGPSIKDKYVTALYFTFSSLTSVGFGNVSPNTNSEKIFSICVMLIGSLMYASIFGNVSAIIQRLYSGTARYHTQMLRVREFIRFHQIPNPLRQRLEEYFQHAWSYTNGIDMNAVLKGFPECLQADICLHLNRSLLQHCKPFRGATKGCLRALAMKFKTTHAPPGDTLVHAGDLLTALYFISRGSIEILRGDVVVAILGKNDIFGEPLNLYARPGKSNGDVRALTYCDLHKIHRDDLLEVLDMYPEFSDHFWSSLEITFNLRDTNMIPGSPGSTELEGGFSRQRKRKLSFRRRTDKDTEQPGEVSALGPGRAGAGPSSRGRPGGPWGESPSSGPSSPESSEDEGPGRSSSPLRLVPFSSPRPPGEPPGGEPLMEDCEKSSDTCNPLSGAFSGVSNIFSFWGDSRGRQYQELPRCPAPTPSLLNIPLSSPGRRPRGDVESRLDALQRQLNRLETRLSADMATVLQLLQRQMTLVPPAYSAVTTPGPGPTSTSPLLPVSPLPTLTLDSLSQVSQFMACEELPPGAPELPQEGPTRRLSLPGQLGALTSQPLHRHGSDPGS

Row | Structure (SMILES) | IC50 [1] [nM] | further results
1 | O=c1[nH]c2c(N3CCN(CCCc4c[nH]c5ccc(F)cc45)CC3)cccc2n1Cc1ccccc1 | 2500 | –
2 | Cc1c(OCc2ccccc2)cccc1N1CCN(CCCc2c[nH]c3ccc(C#N)cc23)CC1 | 1100 | –
3 | Cc1c(OCc2ccccc2)cccc1N1CCN(CCc2c[nH]c3ccc(Cl)cc23)CC1 | 6600 | Ki [2]: 142 nM
4 | Cc1c(OCc2ccccc2)cccc1N1CCN(CCc2c[nH]c3ccc(F)cc23)CC1 | 2800 | –
5 | O=S(=O)(c1ccccc1)c1c[nH]c2c(C3CCN(CCCc4c[nH]c5ccc(Cl)cc45)CC3)cccc12 | 9500 | –
6 | O=S(=O)(c1ccccc1)n1ccc2c(N3CCN(CCCc4c[nH]c5ccc(Cl)cc45)CC3)cccc21 | 700 | –
7 | Cc1c(OCc2ccccc2)cccc1N1CCN(CCCc2c[nH]c3ccc(Cl)cc23)CC1 | 13600 | –
8 | O=S(=O)(c1ccccc1)n1ccc2c(N3CCN(CCCc4c[nH]c5ccc(F)cc45)CC3)cccc21 | 2900 | –
9 | N#Cc1ccc2[nH]cc(CCCN3CCN(c4cccc5c4ccn5S(=O)(=O)c4ccccc4)CC3)c2c1 | 1700 | –
10 | O=S(=O)(c1ccccc1)n1ccc2c(N3CCN(CCc4c[nH]c5ccc(F)cc45)CC3)cccc21 | 1300 | –
11 | O=c1[nH]c2c(N3CCN(CCCc4c[nH]c5ccc(Cl)cc45)CC3)cccc2n1Cc1ccccc1 | 2500 | –
12 | Cc1c(OCc2ccccc2)cccc1N1CCN(CCc2c[nH]c3ccc(C#N)cc23)CC1 | 3600 | –
13 | O=S(=O)(c1ccccc1)c1c[nH]c2c(C3CCN(CCCc4c[nH]c5ccc(F)cc45)CC3)cccc12 | 5000 | –
14 | N#Cc1ccc2[nH]cc(CCCCN3CCN(c4cccc5c4[nH]c(=O)n5Cc4ccccc4)CC3)c2c1 | 1100 | –
15 | O=c1[nH]c2c(N3CCN(CCc4c[nH]c5ccc(F)cc45)CC3)cccc2n1Cc1ccccc1 | 3900 | Ki [2]: 116 nM
16 | N#Cc1ccc2[nH]cc(CCCN3CCC(c4cccc5c(S(=O)(=O)c6ccccc6)c[nH]c45)CC3)c2c1 | 28100 | –
17 | N#Cc1ccc2[nH]cc(CCN3CCN(c4cccc5c4ccn5S(=O)(=O)c4ccccc4)CC3)c2c1 | 8900 | –
18 | N#Cc1ccc2[nH]cc(CCCCN3CCN(c4cccc5c4ccn5S(=O)(=O)c4ccccc4)CC3)c2c1 | 1600 | –
19 | O=S(=O)(c1ccccc1)n1ccc2c(N3CCN(CCc4c[nH]c5ccc(Cl)cc45)CC3)cccc21 | 21300 | Ki [2]: 19 nM
20 | O=S(=O)(c1ccccc1)c1c[nH]c2c(C3CCN(CCc4c[nH]c5ccc(F)cc45)CC3)cccc12 | 29300 | Ki [2]: 25 nM
21 | Cc1c(OCc2ccccc2)cccc1N1CCN(CCCc2c[nH]c3ccc(F)cc23)CC1 | 3300 | –
22 | O=c1[nH]c2c(N3CCN(CCc4c[nH]c5ccc(Cl)cc45)CC3)cccc2n1Cc1ccccc1 | 4000 | Papp (in vitro [3]): 2.75 ×10⁻⁶ cm/s; IC50 at 24 h (in vitro [4]): 47000 nM; IC50 at 24 h (in vitro [5]): 23000 nM; Ki [2]: 8 nM; half-life (in vitro [6]): > 1 h; microsomal CLint (in vitro [7]): < 116 µL/min/mg; solubility at 24 h (physchem): 23.4 µM (≈ 11.4 µg/mL)
23 | N#Cc1ccc2[nH]cc(CCN3CCC(c4cccc5c(S(=O)(=O)c6ccccc6)c[nH]c45)CC3)c2c1 | 1100 | –
24 | O=S(=O)(c1ccccc1)c1c[nH]c2c(C3CCN(CCc4c[nH]c5ccc(Cl)cc45)CC3)cccc12 | 7000 | –
25 | Cc1c(OCc2ccccc2)cccc1N1CCN(CCCCc2c[nH]c3ccc(C#N)cc23)CC1 | 4900 | –
26 | N#Cc1ccc2[nH]cc(CCN3CCN(c4cccc5c4[nH]c(=O)n5Cc4ccccc4)CC3)c2c1 | 1700 | –
27 | N#Cc1ccc2[nH]cc(CCCN3CCN(c4cccc5c4[nH]c(=O)n5Cc4ccccc4)CC3)c2c1 | 1200 | –
28 | N#Cc1ccc2[nH]cc(CCCCN3CCC(c4cccc5c(S(=O)(=O)c6ccccc6)c[nH]c45)CC3)c2c1 | 4600 | –
